From patent US20050197350A1, “Novel quinoline, tetrahydroquinazoline, and pyrimidine derivatives and methods of treatment related to the use thereof” (TAISHO PHARMACEUTICAL CO., LTD., priority 2003, published 2005)

What follows are compounds tested on MCH receptors (assay: MCH receptor activity class (method not given)). Conditions: class by percent of control at 10^−7 M or IC50.

How did the class turn out when COc1ccccc1Oc1ncccc1C(=O)N[C@H]1CC[C@@H](Nc2ncc(C)c(N(C)C)n2)CC1 [compound 2890, N-(cis-4-{[4-(dimethylamino)-5-methylpyrimidin-2-yl]amino}cyclohexyl)-2-(2-methoxyphenoxy)nicotinamide] was run?
Its class is 1 (Class 1: The value of percent of control at 10^−7 M was less than 40% or the value of IC50 was less than 50 nM.).

With Cc1cnc(N[C@H]2CC[C@@H](NC(=O)c3cccnc3Oc3ccccc3F)CC2)nc1N(C)C [compound 2891, N-(cis-4-{[4-(dimethylamino)-5-methylpyrimidin-2-yl]amino}cyclohexyl)-2-(2-fluorophenoxy)nicotinamide] as the compound, how does the class read?
Its class is 1 (Class 1: The value of percent of control at 10^−7 M was less than 40% or the value of IC50 was less than 50 nM.).

With Cc1cnc(N[C@H]2CC[C@@H](NC(=O)c3cccnc3Oc3ccccc3Cl)CC2)nc1N(C)C [compound 2892, 2-(2-chlorophenoxy)-N-(cis-4-{[4-(dimethylamino)-5-methylpyrimidin-2-yl]amino}cyclohexyl)nicotinamide] as the compound, how does the class read?
Its class is 1 (Class 1: The value of percent of control at 10^−7 M was less than 40% or the value of IC50 was less than 50 nM.).

With Cc1cnc(N[C@H]2CC[C@@H](NC(=O)c3cccnc3Oc3cccc(Cl)c3)CC2)nc1N(C)C [compound 2893, 2-(3-chlorophenoxy)-N-(cis-4-{[4-(dimethylamino)-5-methylpyrimidin-2-yl]amino}cyclohexyl)nicotinamide] as the compound, how does the class read?
The class was 1 (Class 1: The value of percent of control at 10^−7 M was less than 40% or the value of IC50 was less than 50 nM.).

How did the class turn out when Cc1cnc(N[C@H]2CC[C@@H](NC(=O)c3cccnc3Oc3cccc(Br)c3)CC2)nc1N(C)C [compound 2894, 2-(3-bromophenoxy)-N-(cis-4-{[4-(dimethylamino)-5-methylpyrimidin-2-yl]amino}cyclohexyl)nicotinamide] was run?
Its class is 1 (Class 1: The value of percent of control at 10^−7 M was less than 40% or the value of IC50 was less than 50 nM.).

How did the class turn out when Cc1cnc(N[C@H]2CC[C@@H](NC(=O)c3cccnc3Oc3cccc(C(F)(F)F)c3)CC2)nc1N(C)C [compound 2895] was run?
The class was 1 (Class 1: The value of percent of control at 10^−7 M was less than 40% or the value of IC50 was less than 50 nM.).

Which class does the source give for Cc1cnc(N[C@H]2CC[C@@H](NC(=O)c3cccc(C(F)(F)F)c3)CC2)nc1N(C)C [compound 2896, N-(cis-4-{[4-(dimethylamino)-5-methylpyrimidin-2-yl]amino}cyclohexyl)-3-(trifluoromethyl)benzamide] here?
The class was 1 (Class 1: The value of percent of control at 10^−7 M was less than 40% or the value of IC50 was less than 50 nM.).

Cc1cnc(N[C@H]2CC[C@@H](NC(=O)c3cccc(F)c3)CC2)nc1N(C)C [compound 2897, N-(cis-4-{[4-(dimethylamino)-5-methylpyrimidin-2-yl]amino}cyclohexyl)-3-fluorobenzamide] was tested. Which class did it give?
Its class is 1 (Class 1: The value of percent of control at 10^−7 M was less than 40% or the value of IC50 was less than 50 nM.).

For Cc1cnc(N[C@H]2CC[C@@H](NC(=O)c3cccc(Br)c3)CC2)nc1N(C)C [compound 2898, 3-bromo-N-(cis-4-{[4-(dimethylamino)-5-methylpyrimidin-2-yl]amino}cyclohexyl)benzamide], which class is on record?
Its class is 1 (Class 1: The value of percent of control at 10^−7 M was less than 40% or the value of IC50 was less than 50 nM.).

How did the class turn out when Cc1cnc(N[C@H]2CC[C@@H](NC(=O)c3ccc(F)cc3)CC2)nc1N(C)C [compound 2899, N-(cis-4-{[4-(dimethylamino)-5-methylpyrimidin-2-yl]amino}cyclohexyl)-4-fluorobenzamide] was run?
Its class is 1 (Class 1: The value of percent of control at 10^−7 M was less than 40% or the value of IC50 was less than 50 nM.).

For COc1cc(OC)cc(C(=O)N[C@H]2CC[C@@H](Nc3ncc(C)c(N(C)C)n3)CC2)c1 [compound 2900, N-(cis-4-{[4-(dimethylamino)-5-methylpyrimidin-2-yl]amino}cyclohexyl)-3,5-dimethoxybenzamide], which class is on record?
Its class is 1 (Class 1: The value of percent of control at 10^−7 M was less than 40% or the value of IC50 was less than 50 nM.).

How did the class turn out when Cc1cnc(N[C@H]2CC[C@@H](NC(=O)c3ccc(F)cc3F)CC2)nc1N(C)C [compound 2901, N-(cis-4-{[4-(dimethylamino)-5-methylpyrimidin-2-yl]amino}cyclohexyl)-2,4-difluorobenzamide] was run?
The class was 1 (Class 1: The value of percent of control at 10^−7 M was less than 40% or the value of IC50 was less than 50 nM.).

For Cc1cnc(N[C@H]2CC[C@@H](NC(=O)c3cc(F)ccc3F)CC2)nc1N(C)C [compound 2902, N-(cis-4-{[4-(dimethylamino)-5-methylpyrimidin-2-yl]amino}cyclohexyl)-2,5-difluorobenzamide], which class is on record?
Its class is 1 (Class 1: The value of percent of control at 10^−7 M was less than 40% or the value of IC50 was less than 50 nM.).

For Cc1cnc(N[C@H]2CC[C@@H](NC(=O)c3ccc(F)c(F)c3F)CC2)nc1N(C)C [compound 2903, N-(cis-4-{[4-(dimethylamino)-5-methylpyrimidin-2-yl]amino}cyclohexyl)-2,3,4-trifluorobenzamide], which class is on record?
Its class is 1 (Class 1: The value of percent of control at 10^−7 M was less than 40% or the value of IC50 was less than 50 nM.).

Which class does the source give for Cc1cnc(N[C@H]2CC[C@@H](NC(=O)c3ccccc3)CC2)nc1N(C)C [compound 2904, N-(cis-4-{[4-(dimethylamino)-5-methylpyrimidin-2-yl]amino}cyclohexyl)benzamide] here?
The class was 2 (Class 2: The value of percent of control at 10^−7 M was from 40% to 60% or the value of IC′50 was from 50 nM to 200 nM.).

With Cc1cnc(N[C@H]2CC[C@@H](NC(=O)c3ccc(C(C)(C)C)cc3)CC2)nc1N(C)C [compound 2905] as the compound, how does the class read?
The class was 1 (Class 1: The value of percent of control at 10^−7 M was less than 40% or the value of IC50 was less than 50 nM.).

How did the class turn out when Cc1cnc(N[C@H]2CC[C@@H](NC(=O)c3ccc(Cl)cc3)CC2)nc1N(C)C [compound 2907, 4-chloro-N-(cis-4-{[4-(dimethylamino)-5-methylpyrimidin-2-yl]amino}cyclohexyl)benzamide] was run?
Its class is 1 (Class 1: The value of percent of control at 10^−7 M was less than 40% or the value of IC50 was less than 50 nM.).

Which class does the source give for Cc1cnc(N[C@H]2CC[C@@H](NC(=O)c3cccc(C#N)c3)CC2)nc1N(C)C [compound 2908, 3-cyano-N-(cis-4-{[4-(dimethylamino)-5-methylpyrimidin-2-yl]amino}cyclohexyl)benzamide] here?
The class was 1 (Class 1: The value of percent of control at 10^−7 M was less than 40% or the value of IC50 was less than 50 nM.).

Which class does the source give for Cc1cnc(N[C@H]2CC[C@@H](NC(=O)c3ccc(C#N)cc3)CC2)nc1N(C)C [compound 2909, 4-cyano-N-(cis-4-{[4-(dimethylamino)-5-methylpyrimidin-2-yl]amino}cyclohexyl)benzamide] here?
The class was 1 (Class 1: The value of percent of control at 10^−7 M was less than 40% or the value of IC50 was less than 50 nM.).

With COc1ccccc1C(=O)N[C@H]1CC[C@@H](Nc2ncc(C)c(N(C)C)n2)CC1 [compound 2910] as the compound, how does the class read?
The class was 3 (Class 3 The value of percent of control at 10^−7 M was more than 60% or the value of IC50 was more than 200 nM.).

How did the class turn out when Cc1cnc(N[C@H]2CC[C@@H](NC(=O)c3ccc(Br)cc3)CC2)nc1N(C)C [compound 2911, 4-bromo-N-(cis-4-{[4-(dimethylamino)-5-methylpyrimidin-2-yl]amino}cyclohexyl)benzamide] was run?
The class was 1 (Class 1: The value of percent of control at 10^−7 M was less than 40% or the value of IC50 was less than 50 nM.).

Cc1cnc(N[C@H]2CC[C@@H](NC(=O)c3ccc(C(F)(F)F)cc3)CC2)nc1N(C)C [compound 2912, N-(cis-4-{[4-(dimethylamino)-5-methylpyrimidin-2-yl]amino}cyclohexyl)-4-(trifluoromethyl)benzamide] was tested. Which class did it give?
Its class is 1 (Class 1: The value of percent of control at 10^−7 M was less than 40% or the value of IC50 was less than 50 nM.).

For COc1ccc(C(=O)N[C@H]2CC[C@@H](Nc3ncc(C)c(N(C)C)n3)CC2)cc1 [compound 2913], which class is on record?
The class was 3 (Class 3 The value of percent of control at 10^−7 M was more than 60% or the value of IC50 was more than 200 nM.).

How did the class turn out when Cc1cnc(N[C@H]2CC[C@@H](NC(=O)c3ccccc3Br)CC2)nc1N(C)C [compound 2914] was run?
Its class is 3 (Class 3 The value of percent of control at 10^−7 M was more than 60% or the value of IC50 was more than 200 nM.).

Cc1cnc(N[C@H]2CC[C@@H](NC(=O)c3ccccc3Cl)CC2)nc1N(C)C [compound 2915] was tested. Which class did it give?
The class was 3 (Class 3 The value of percent of control at 10^−7 M was more than 60% or the value of IC50 was more than 200 nM.).

How did the class turn out when Cc1cnc(N[C@H]2CC[C@@H](NC(=O)c3ccccc3F)CC2)nc1N(C)C [compound 2916] was run?
The class was 3 (Class 3 The value of percent of control at 10^−7 M was more than 60% or the value of IC50 was more than 200 nM.).

Cc1ccccc1C(=O)N[C@H]1CC[C@@H](Nc2ncc(C)c(N(C)C)n2)CC1 [compound 2917] was tested. Which class did it give?
The class was 3 (Class 3 The value of percent of control at 10^−7 M was more than 60% or the value of IC50 was more than 200 nM.).

With Cc1cnc(N[C@H]2CC[C@@H](NC(=O)c3ccccc3C(F)(F)F)CC2)nc1N(C)C [compound 2918] as the compound, how does the class read?
The class was 3 (Class 3 The value of percent of control at 10^−7 M was more than 60% or the value of IC50 was more than 200 nM.).

Cc1cnc(N[C@H]2CC[C@@H](NC(=O)c3ccc(F)c(C(F)(F)F)c3)CC2)nc1N(C)C [compound 2919] was tested. Which class did it give?
The class was 1 (Class 1: The value of percent of control at 10^−7 M was less than 40% or the value of IC50 was less than 50 nM.).

Which class does the source give for Cc1cc(C(=O)N[C@H]2CC[C@@H](Nc3ncc(C)c(N(C)C)n3)CC2)ccc1Br [compound 2920, 4-bromo-N-(cis-4-{[4-(dimethylamino)-5-methylpyrimidin-2-yl]amino}cyclohexyl)-3-methylbenzamide] here?
The class was 1 (Class 1: The value of percent of control at 10^−7 M was less than 40% or the value of IC50 was less than 50 nM.).

With CCOc1ccc(C(=O)N[C@H]2CC[C@@H](Nc3ncc(C)c(N(C)C)n3)CC2)cc1 [compound 2921, N-(cis-4-{[4-(dimethylamino)-5-methylpyrimidin-2-yl]amino}cyclohexyl)-4-ethoxybenzamide] as the compound, how does the class read?
Its class is 2 (Class 2: The value of percent of control at 10^−7 M was from 40% to 60% or the value of IC′50 was from 50 nM to 200 nM.).
